# Laboratory results reported in the supplement of paper PMC10307832.
# Columns and labels:
# Assay in all cases: relative viability (nuclei count vs DMSO), 5 days (fraction); higher = more cells survive
# [1] = tested on: NCI-H838
# How it was run: (§1)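 Five library-drug doses in √10 steps were combined with a fixed anchor-drug dose, or a single drug was given alone, by pin tool to lung cancer cell lines in 1536-well plates the day after seeding. Nuclei were stained and counted after 5 days. Relative viability is the nuclei count in treated wells over that in vehicle wells, taken as the median of duplicate plates.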
# [2] = tested on: SK-MES-1
# How it was run: as §1
# [3] = tested on: NCI-H1792
# How it was run: as §1
# [4] = tested on: UMC-11
# How it was run: as §1
# [5] = tested on: NCI-H358
# How it was run: as §1
# [6] = tested on: NCI-H2228
# How it was run: as §1
# [7] = tested on: NCI-H1915
# How it was run: as §1
# [8] = tested on: LCLC-97TM1
# How it was run: as §1
# [9] = tested on: NCI-H1355
# How it was run: as §1
# [10] = tested on: NCI-H322M
# How it was run: as §1
# [11] = tested on: PC-3 [JPC-3]
# How it was run: as §1
# [12] = tested on: NCI-H1395
# How it was run: as §1
# [13] = tested on: LK-2
# How it was run: as §1
# [14] = tested on: ABC-1
# How it was run: as §1
# [15] = tested on: NCI-H661
# How it was run: as §1
# [16] = tested on: H3255
# How it was run: as §1
# [17] = tested on: NCI-H1651
# How it was run: as §1
# [18] = tested on: NCI-H2087
# How it was run: as §1
# [19] = tested on: NCI-H1563
# How it was run: as §1
# [20] = tested on: A-427
# How it was run: as §1
# [21] = tested on: NCI-H2085
# How it was run: as §1
# [22] = tested on: CAL-12T
# How it was run: as §1
# [23] = tested on: LC-2-ad
# How it was run: as §1
# [24] = tested on: RERF-LC-KJ
# How it was run: as §1
# [25] = tested on: NCI-H1666
# How it was run: as §1
smiles,measurement,setting,value
CCCCCCCCCCCC1=C(O)C(=O)C=C(O)C1=O [Embelin] + CCNC(=O)c1noc(-c2cc(C(C)C)c(O)cc2O)c1-c1ccc(CN2CCOCC2)cc1 [Luminespib] (partner 0.01 µM),relative viability,[1]; first compound 0.08 µM,0.292
same,relative viability,[1]; first compound 0.8 µM,0.449
same,relative viability,[1]; first compound 2.53 µM,0.362
same,relative viability,[1]; first compound 8 µM,0.244
same,relative viability,[2]; first compound 0.08 µM,0.723
same,relative viability,[2]; first compound 0.8 µM,1.05
same,relative viability,[2]; first compound 2.53 µM,0.918
same,relative viability,[2]; first compound 8 µM,0.695
same,relative viability,[3]; first compound 0.08 µM,0.363
same,relative viability,[3]; first compound 0.8 µM,0.515
same,relative viability,[3]; first compound 2.53 µM,0.46
same,relative viability,[3]; first compound 8 µM,0.516
same,relative viability,[4]; first compound 0.08 µM,1.1
same,relative viability,[4]; first compound 0.8 µM,1.15
same,relative viability,[4]; first compound 2.53 µM,1.27
same,relative viability,[4]; first compound 8 µM,1.22
same,relative viability,[5]; first compound 0.08 µM,0.464
same,relative viability,[5]; first compound 0.8 µM,0.447
same,relative viability,[5]; first compound 2.53 µM,0.44
same,relative viability,[5]; first compound 8 µM,0.306
same,relative viability,[6]; first compound 0.08 µM,0.148
same,relative viability,[6]; first compound 0.8 µM,0.13
same,relative viability,[6]; first compound 2.53 µM,0.228
same,relative viability,[6]; first compound 8 µM,0.151
same,relative viability,[7]; first compound 0.08 µM,0.818
same,relative viability,[7]; first compound 0.8 µM,0.819
same,relative viability,[7]; first compound 2.53 µM,0.853
same,relative viability,[7]; first compound 8 µM,0.892
same,relative viability,[8]; first compound 0.08 µM,0.78
same,relative viability,[8]; first compound 0.8 µM,0.899
same,relative viability,[8]; first compound 2.53 µM,0.907
same,relative viability,[8]; first compound 8 µM,0.872
same,relative viability,[9]; first compound 0.08 µM,0.764
same,relative viability,[9]; first compound 0.8 µM,0.847
same,relative viability,[9]; first compound 2.53 µM,0.837
same,relative viability,[9]; first compound 8 µM,0.657
same,relative viability,[10]; first compound 0.08 µM,0.951
same,relative viability,[10]; first compound 0.8 µM,1.04
same,relative viability,[10]; first compound 2.53 µM,1.19
same,relative viability,[10]; first compound 8 µM,0.83
same,relative viability,[11]; first compound 0.08 µM,0.798
same,relative viability,[11]; first compound 0.8 µM,0.752
same,relative viability,[11]; first compound 2.53 µM,0.724
same,relative viability,[11]; first compound 8 µM,0.599
same,relative viability,[12]; first compound 0.08 µM,0.741
same,relative viability,[12]; first compound 0.8 µM,0.928
same,relative viability,[12]; first compound 2.53 µM,0.783
same,relative viability,[12]; first compound 8 µM,0.631
same,relative viability,[13]; first compound 0.08 µM,0.17
same,relative viability,[13]; first compound 0.8 µM,0.281
same,relative viability,[13]; first compound 2.53 µM,0.189
same,relative viability,[13]; first compound 8 µM,0.198
same,relative viability,[14]; first compound 0.08 µM,0.546
same,relative viability,[14]; first compound 0.8 µM,0.841
same,relative viability,[14]; first compound 2.53 µM,0.913
same,relative viability,[14]; first compound 8 µM,0.825
same,relative viability,[15]; first compound 0.08 µM,0.924
same,relative viability,[15]; first compound 0.8 µM,1
same,relative viability,[15]; first compound 2.53 µM,0.897
same,relative viability,[15]; first compound 8 µM,0.85
same,relative viability,[16]; first compound 0.08 µM,0.848
same,relative viability,[16]; first compound 0.8 µM,0.954
same,relative viability,[16]; first compound 2.53 µM,0.935
same,relative viability,[16]; first compound 8 µM,0.965
same,relative viability,[17]; first compound 0.08 µM,0.953
same,relative viability,[17]; first compound 0.8 µM,0.944
same,relative viability,[17]; first compound 2.53 µM,0.977
same,relative viability,[17]; first compound 8 µM,0.886
same,relative viability,[18]; first compound 0.08 µM,0.162
same,relative viability,[18]; first compound 0.8 µM,0.186
same,relative viability,[18]; first compound 2.53 µM,0.141
same,relative viability,[18]; first compound 8 µM,0.172
same,relative viability,[19]; first compound 0.08 µM,0.568
same,relative viability,[19]; first compound 0.8 µM,0.573
same,relative viability,[19]; first compound 2.53 µM,0.526
same,relative viability,[19]; first compound 8 µM,0.487
same,relative viability,[20]; first compound 0.08 µM,0.976
same,relative viability,[20]; first compound 0.8 µM,0.998
same,relative viability,[20]; first compound 2.53 µM,0.966
same,relative viability,[20]; first compound 8 µM,1.18
same,relative viability,[21]; first compound 0.08 µM,0.458
same,relative viability,[21]; first compound 0.8 µM,0.463
same,relative viability,[21]; first compound 2.53 µM,0.469
same,relative viability,[21]; first compound 8 µM,0.4
same,relative viability,[22]; first compound 0.08 µM,0.499
same,relative viability,[22]; first compound 0.8 µM,0.69
same,relative viability,[22]; first compound 2.53 µM,0.626
same,relative viability,[22]; first compound 8 µM,0.189
same,relative viability,[23]; first compound 0.08 µM,0.892
same,relative viability,[23]; first compound 0.8 µM,1.28
same,relative viability,[23]; first compound 2.53 µM,1.1
same,relative viability,[23]; first compound 8 µM,0.806
same,relative viability,[24]; first compound 0.08 µM,1.05
same,relative viability,[24]; first compound 0.8 µM,1.13
same,relative viability,[24]; first compound 2.53 µM,1.51
same,relative viability,[24]; first compound 8 µM,0.55
same,relative viability,[25]; first compound 0.08 µM,1.04
same,relative viability,[25]; first compound 0.8 µM,1.01
same,relative viability,[25]; first compound 2.53 µM,1.04
same,relative viability,[25]; first compound 8 µM,1.01
